Values joined by “and” are separate entries in the source; they are usually repeats but may differ in a detail not shown here. Equal values may be shown once.
What was measured:
[1] = target: Adenosine receptor A2a (Homo sapiens, UniProt P29274); assay: Binding affinity of compound for displacement of specific [3H]ZM-241385 binding at human adenosine A2A receptor expressed in CHO cells; assay type: cell-based
[2] = target: T1, Adenosine receptor A1 (Homo sapiens, UniProt P30542); assay: Displacement of specific [3H]DPCPX binding at human adenosine A1 receptor expressed in CHO cells; assay type: cell-based
T1 sequence (P30542 whole entry): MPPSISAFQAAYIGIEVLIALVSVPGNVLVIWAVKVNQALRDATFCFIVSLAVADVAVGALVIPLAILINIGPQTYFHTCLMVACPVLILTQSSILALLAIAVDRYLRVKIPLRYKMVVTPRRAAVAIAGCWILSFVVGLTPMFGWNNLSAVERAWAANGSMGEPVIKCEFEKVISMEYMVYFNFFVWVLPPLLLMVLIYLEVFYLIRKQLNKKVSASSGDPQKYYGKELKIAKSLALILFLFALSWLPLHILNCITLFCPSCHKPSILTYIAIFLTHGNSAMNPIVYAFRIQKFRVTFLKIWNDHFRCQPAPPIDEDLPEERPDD

[3] = target: T2, Adenosine receptor A2b (Homo sapiens, UniProt P29275); assay: Binding affinity of compound for displacement of specific [3H]- DPCPX binding at human A2B receptors expressed in HEK293 cells; assay type: cell-based
T2 sequence (P29275 whole entry): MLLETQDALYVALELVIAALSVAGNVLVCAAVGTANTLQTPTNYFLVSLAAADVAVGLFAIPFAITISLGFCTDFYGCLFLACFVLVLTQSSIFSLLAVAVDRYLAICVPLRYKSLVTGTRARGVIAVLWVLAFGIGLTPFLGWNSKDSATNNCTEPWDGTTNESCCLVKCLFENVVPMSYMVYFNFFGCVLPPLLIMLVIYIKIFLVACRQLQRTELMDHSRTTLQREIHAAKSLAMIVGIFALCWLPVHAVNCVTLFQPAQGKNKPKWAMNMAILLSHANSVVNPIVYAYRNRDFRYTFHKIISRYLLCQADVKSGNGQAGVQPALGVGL

[4] = target: T3, Adenosine receptor A3 (Homo sapiens, UniProt P0DMS8); assay: Binding affinity of compound for displacement of specific [3H]MRE3008-F20 binding at human A3 receptors expressed in CHO cells; assay type: cell-based
T3 sequence (P0DMS8 whole entry): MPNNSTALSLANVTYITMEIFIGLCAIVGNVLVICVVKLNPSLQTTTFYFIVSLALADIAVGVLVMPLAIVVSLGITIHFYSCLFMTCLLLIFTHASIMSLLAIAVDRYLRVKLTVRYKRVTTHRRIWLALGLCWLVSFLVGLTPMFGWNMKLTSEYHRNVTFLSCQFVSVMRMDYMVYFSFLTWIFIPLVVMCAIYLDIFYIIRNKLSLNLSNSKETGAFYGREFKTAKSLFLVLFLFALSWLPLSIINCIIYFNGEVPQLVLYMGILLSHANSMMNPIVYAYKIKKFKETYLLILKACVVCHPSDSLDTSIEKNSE

[5] = target: T2, Adenosine receptor A2b; assay: Binding affinity of compound for displacement of [3H]DPCPX binding in HEK293 membranes expressing human A2B adenosine receptors
[6] = target: T2, Adenosine receptor A2b; assay: Inhibitory activity against cAMP production in CHO cells transfected with human A2B adenosine receptor; assay type: functional, cell-based

Adenosine receptor A2a, sequence (P29274 whole entry): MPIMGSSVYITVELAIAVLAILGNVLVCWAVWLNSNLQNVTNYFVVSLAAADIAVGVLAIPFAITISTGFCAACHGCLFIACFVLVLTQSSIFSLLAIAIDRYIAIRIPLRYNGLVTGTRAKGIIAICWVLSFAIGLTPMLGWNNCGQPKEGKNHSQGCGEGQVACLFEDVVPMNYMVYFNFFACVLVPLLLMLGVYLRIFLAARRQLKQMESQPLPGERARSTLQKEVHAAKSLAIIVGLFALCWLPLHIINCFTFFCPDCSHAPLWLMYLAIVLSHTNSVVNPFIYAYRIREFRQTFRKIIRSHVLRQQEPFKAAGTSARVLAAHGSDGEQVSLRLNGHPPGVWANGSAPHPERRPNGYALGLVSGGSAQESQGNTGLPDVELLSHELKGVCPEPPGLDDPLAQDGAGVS

Structure (SMILES)	Ki [1] [µM]	Ki [2] [µM]	Ki [3] [µM]	Ki [4] [µM]	Ki [5]	IC50 [6]
CCCn1c(=O)c2nc(-c3ccc(N)cc3)[nH]c2n(CCC)c1=O	> 1	0.065	0.009	> 1	–	–
CC(C)Cn1c(=O)c2nc(-c3cc(OCC(=O)Nc4ccc(F)cc4)nn3C)[nH]c2n(CC(C)C)c1=O	> 1	–	–	> 1	–	–
CCCn1c(=O)c2nc(-c3ccc(NC(=O)Nc4cccc(Cl)c4)cc3)[nH]c2n(CCC)c1=O	> 1	1.36	0.11	> 1	–	–
CCCn1c(=O)c2c(nc(-c3ccc(N)cc3)n2C)n(CCC)c1=O	> 1	> 1	0.516	> 1	–	–
CCCn1c(=O)c2[nH]c(-c3cc(OCC(=O)Nc4ccc(OC)c(OC)c4)nn3C)nc2n(CCC)c1=O	–	> 1	–	–	0.012 µM	0.046 µM
CCCn1c(=O)c2[nH]c(-c3cc(OCC(=O)N4CCN(c5ccccc5)CC4)nn3C)nc2n(CCC)c1=O	–	0.26	0.012	–	0.012 µM and 0.015 µM	0.07 µM and 0.065 µM
CCCn1c(=O)c2[nH]c(-c3cc(N)n(C)n3)nc2n(CCC)c1=O	> 1	–	–	> 1	–	–
CCCn1c(=O)c2[nH]c(-c3cc(OCC(=O)N4CCN(c5ccc(F)cc5)CC4)nn3C)nc2n(CCC)c1=O	–	> 1	–	–	–	–
CCCn1c(=O)c2[nH]c(-c3cc(OCC(=O)Nc4ccc(N5CCOCC5)cc4)nn3C)nc2n(CCC)c1=O	–	> 1	–	–	–	–
CCCn1c(=O)c2[nH]c(-c3ccc(NC(=O)Cc4ccc(OC)c(OC)c4)cc3)nc2n(CCC)c1=O	> 1	1.73	0.095	> 1	–	–
CCCn1c(=O)c2[nH]c(-c3ccc(OCC(=O)Nc4ccc(I)cc4)nc3)nc2n(CCC)c1=O	–	> 1	–	–	0.108 µM	0.477 µM

Continued, values first:

Ki [1] [µM]	Ki [2] [µM]	Ki [3] [µM]	Ki [4] [µM]	Ki [5]	IC50 [6]	Structure (SMILES)
–	> 1	–	–	–	–	Cn1nc(NC(=O)Cc2ccccc2)cc1-c1nc2c([nH]1)c(=O)n(C)c(=O)n2C
> 1	> 1	> 1	> 1	–	–	CCCn1c(=O)c2[nH]c(-c3cc(NC(=O)Cc4cc(OC)c(OC)c(OC)c4)nn3C)nc2n(CCC)c1=O
–	> 1	–	–	–	–	CCCn1c(=O)c2[nH]c(-c3cc(NC(=O)Cc4ccc(O)cc4)nn3C)nc2n(CCC)c1=O
–	–	–	–	0.05 µM	0.16 µM	CCCn1c(=O)c2[nH]c(-c3cc(NC(=O)Cc4cccc(F)c4)nn3C)nc2n(CCC)c1=O
–	> 1	–	–	–	–	CCCn1c(=O)c2[nH]c(-c3cc(NC(=O)[C@@H](C)c4ccccc4)nn3C)nc2n(CCC)c1=O
–	–	–	–	0.016 µM	0.06 µM	CCCn1c(=O)c2[nH]c(-c3cc(OCC(=O)Nc4ccc(Cl)c(Cl)c4)nn3C)nc2n(CCC)c1=O
–	–	0.078	–	–	–	CCCn1c(=O)c2[nH]c(-c3cc(NC(=O)Cc4ccc(F)c(F)c4)nn3C)nc2n(CCC)c1=O
–	> 1	–	–	–	–	CCCn1c(=O)c2[nH]c(-c3cc(NC(=O)CCC(=O)O)nn3C)nc2n(CCC)c1=O
–	–	–	–	0.01 µM	0.04 µM	CCCn1c(=O)c2[nH]c(-c3cc(OCC(=O)Nc4ccc(C)c(C)c4)nn3C)nc2n(CCC)c1=O
–	–	–	–	0.019 µM	0.075 µM	CCCn1c(=O)c2[nH]c(-c3cc(OCC(=O)Nc4ccc(C)cc4)nn3C)nc2n(CCC)c1=O
–	> 1	–	–	–	–	CCCn1c(=O)c2[nH]c(-c3cc(NC(=O)Cc4ccc(CC(C)C)cc4)nn3C)nc2n(CCC)c1=O
> 1	> 1	–	–	0.038 µM	–	CCCn1c(=O)c2[nH]c(-c3cc(NC(=O)Cc4ccc(OC)c(OC)c4)nn3C)nc2n(CCC)c1=O
> 1	> 1	–	–	–	–	CCCn1c(=O)c2[nH]c(-c3cc(NC(=O)Cc4ccc(O)c(OC)c4)nn3C)nc2n(CCC)c1=O
–	> 1	–	–	0.036 µM	0.115 µM	CCCn1c(=O)c2[nH]c(-c3cc(OCC(=O)Nc4ccc(C(=O)O)cc4)nn3C)nc2n(CCC)c1=O
> 1	> 1	1.01	> 1	–	–	CCCn1c(=O)c2[nH]c(-c3cc(OCC(=O)Nc4ccc(C)cn4)nn3C)nc2n(CCC)c1=O
–	> 1	–	–	–	–	CCCn1c(=O)c2[nH]c(-c3cc(NC(=O)Cc4cccc(OC)c4)nn3C)nc2n(CCC)c1=O

From ChEMBL document CHEMBL1148292 (J Med Chem, 2004)
